Patent US20230271933A1, “HETEROCYCLIC IMMUNOMODULATOR” (Beijing Innocare Pharma Tech Co., Ltd., priority 2020, published 2023)

Target: hERG potassium ion channel (Homo sapiens, UniProt Q12809)
Experiment: Blockade of the hERG potassium ion channel (whole cell patch clamp)
Type: cell-based
Conditions: HEK293 cells stably overexpressing hERG, pH 7.4, tail current, read-out: The percentage of the inhibition to the hERG current at the solubility of 3 μM (n = 2)
Experimental: The effect of the compound of the present invention on possible arrhythmias was assessed by determining the blockade of the hERG potassium ion channel.
The experiment method was summarized as follows: • Extracellular fluid: 140 mM NaCl, 3.5 mM KCl, 1 mM MgCl2, 2 mM CaCl2, 10 mM D-glucose, 10 mM HEPES, 1.25 mM NaH2PO4, pH=7.4. • Electrode internal solution: 20 mM KCl, 115 mM K-aspartate, 1 mM MgCl2, 5 mM EGTA, 10 mM HEPES, 2 mM Na2-ATP, pH=7.2. • Compound solution: the compound to be tested was dissolved in DMSO and prepared into a stock solution having a concentration of 10 mM, then diluted into the concentration of 3 mM with DMSO, and then diluted into a solution having a concentration of 3 μM with the extracellular solution for subsequent use. • Cell culture: the HEK293 cell line with the stable hERG potassium channel overexpression (Creacell, Cat. No. A-0320) was cultured in a DMEM medium (Gibco, Cat. No. 11995-065) containing […] (Gibco, Cat. No. 1428478) and 0.8 mg/mL G418 (Amresco, Cat. No. E859-5G) at the culture temperature of 37° C. under the carbon dioxide concentration of […]. The spent medium was removed and the cells were washed once with PBS (Gibco, Cat. No. 1009-141). Then 1 mL TrypLE™ Express solution (Gibco, Cat. No. 12604021) was added and the cells were incubated at 37° C. […]. When the cells were detached from the bottom of the dish, 5 mL of complete medium preheated at 37° C. was added. The cell suspension was transferred to a sterile centrifuge tube and centrifuged at 1000 rpm for 5 minutes before cell collection. Cells were inoculated in 6 cm cell culture dishes at the cell inoculation volume of 2.5*10^5 per dish (final volume: 5 mL). Before the patch clamp detection experiment, 3*10^3 cells were plated on the cover slips, cultured in 24-well plates (final volume: 500 μL), and detected 18 hours later. • Voltage stimulation protocol by recording the whole-cell hERG potassium current with the whole cell patch clamp: after forming a whole-cell seal, the cell membrane voltage was clamped at −80 mV. The clamping voltage was depolarized from −80 mV to −50 mV and maintained for 0.5 seconds (as leakage current detection), then stepped to 30 mV and maintained for 2.5 seconds, then quickly returned to −50 mV and maintained for 4 seconds to excite the hERG channel tail current (Peak tail current), the hERG potassium current was recorded every other 10 seconds. Experiment data were collected with EPC-10 amplifier (HEKA) and stored in PatchMaster (HEKA v2x73) software. • Determination: A capillary glass tube (Sutter Instruments) was drawn into a recording electrode with a microelectrode drawing instrument (Sutter Instruments). The cell-loaded cover slip was removed from the 24-well plate placed in the incubator and then placed under an inverted microscope. […] In the whole-cell recording mode, the slow capacitance compensation was performed and the membrane capacitance and the series resistance were recorded, during which the leakage compensation was not applied. After the hERG tail current recorded with the whole cell was stabilized for 3-5 minutes, 8 mL of the compound-free extracellular fluid (blank control) and 8 mL of 3 μM solution of the compound to be tested were sequentially flowed through the recording bath with the gravity perfusion to act on the cells for 5 minutes (or to the current stabilization). The current detected for each cell in the compound-free extracellular fluid was served as its own control. […]

hERG potassium ion channel, sequence (Q12809 whole entry): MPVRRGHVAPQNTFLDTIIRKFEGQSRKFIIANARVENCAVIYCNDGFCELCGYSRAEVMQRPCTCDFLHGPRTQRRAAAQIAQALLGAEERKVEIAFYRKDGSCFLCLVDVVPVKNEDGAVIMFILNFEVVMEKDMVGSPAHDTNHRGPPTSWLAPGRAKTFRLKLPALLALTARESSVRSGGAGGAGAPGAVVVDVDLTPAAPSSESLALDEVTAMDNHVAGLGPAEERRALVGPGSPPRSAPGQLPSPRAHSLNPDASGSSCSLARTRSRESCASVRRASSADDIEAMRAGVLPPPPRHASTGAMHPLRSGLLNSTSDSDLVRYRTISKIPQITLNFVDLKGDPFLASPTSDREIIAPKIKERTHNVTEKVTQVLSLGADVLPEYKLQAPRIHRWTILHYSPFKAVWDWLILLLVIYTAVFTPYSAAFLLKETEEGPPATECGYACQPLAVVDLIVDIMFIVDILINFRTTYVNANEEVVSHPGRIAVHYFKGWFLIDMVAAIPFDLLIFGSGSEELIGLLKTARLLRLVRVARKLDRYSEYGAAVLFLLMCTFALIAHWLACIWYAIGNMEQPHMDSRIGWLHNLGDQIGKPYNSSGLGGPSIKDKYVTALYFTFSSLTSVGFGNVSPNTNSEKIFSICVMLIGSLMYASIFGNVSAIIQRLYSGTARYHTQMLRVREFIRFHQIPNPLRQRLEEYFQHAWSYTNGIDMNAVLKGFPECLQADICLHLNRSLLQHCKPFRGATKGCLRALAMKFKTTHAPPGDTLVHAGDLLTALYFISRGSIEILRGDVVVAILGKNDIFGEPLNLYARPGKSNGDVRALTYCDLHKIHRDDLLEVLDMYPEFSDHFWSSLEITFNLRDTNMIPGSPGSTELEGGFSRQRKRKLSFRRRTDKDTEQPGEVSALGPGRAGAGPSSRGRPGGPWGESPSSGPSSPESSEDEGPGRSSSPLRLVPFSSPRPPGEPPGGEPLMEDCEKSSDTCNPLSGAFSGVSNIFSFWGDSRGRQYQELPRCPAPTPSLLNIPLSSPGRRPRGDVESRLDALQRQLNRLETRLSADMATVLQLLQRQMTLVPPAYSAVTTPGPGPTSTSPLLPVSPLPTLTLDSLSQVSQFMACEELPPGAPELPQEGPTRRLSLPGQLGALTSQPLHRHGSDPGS

N#Cc1ccc(N2CCN(Cc3ccc(COc4cccc5c4CN([C@H]4CCC(=O)NC4=O)C5=O)cc3)CC2)c(F)c1 [CC-92480, reference compound]
inhibition at 5 min, 3 µM: 76%
